The source of these data is BindingDB's records for doi:10.3109/14756366.2012.658786 (Yeungnam University, 2013).

Each structure is given as a SMILES string.

Sequence of Fatty acid synthase (P12276 whole entry): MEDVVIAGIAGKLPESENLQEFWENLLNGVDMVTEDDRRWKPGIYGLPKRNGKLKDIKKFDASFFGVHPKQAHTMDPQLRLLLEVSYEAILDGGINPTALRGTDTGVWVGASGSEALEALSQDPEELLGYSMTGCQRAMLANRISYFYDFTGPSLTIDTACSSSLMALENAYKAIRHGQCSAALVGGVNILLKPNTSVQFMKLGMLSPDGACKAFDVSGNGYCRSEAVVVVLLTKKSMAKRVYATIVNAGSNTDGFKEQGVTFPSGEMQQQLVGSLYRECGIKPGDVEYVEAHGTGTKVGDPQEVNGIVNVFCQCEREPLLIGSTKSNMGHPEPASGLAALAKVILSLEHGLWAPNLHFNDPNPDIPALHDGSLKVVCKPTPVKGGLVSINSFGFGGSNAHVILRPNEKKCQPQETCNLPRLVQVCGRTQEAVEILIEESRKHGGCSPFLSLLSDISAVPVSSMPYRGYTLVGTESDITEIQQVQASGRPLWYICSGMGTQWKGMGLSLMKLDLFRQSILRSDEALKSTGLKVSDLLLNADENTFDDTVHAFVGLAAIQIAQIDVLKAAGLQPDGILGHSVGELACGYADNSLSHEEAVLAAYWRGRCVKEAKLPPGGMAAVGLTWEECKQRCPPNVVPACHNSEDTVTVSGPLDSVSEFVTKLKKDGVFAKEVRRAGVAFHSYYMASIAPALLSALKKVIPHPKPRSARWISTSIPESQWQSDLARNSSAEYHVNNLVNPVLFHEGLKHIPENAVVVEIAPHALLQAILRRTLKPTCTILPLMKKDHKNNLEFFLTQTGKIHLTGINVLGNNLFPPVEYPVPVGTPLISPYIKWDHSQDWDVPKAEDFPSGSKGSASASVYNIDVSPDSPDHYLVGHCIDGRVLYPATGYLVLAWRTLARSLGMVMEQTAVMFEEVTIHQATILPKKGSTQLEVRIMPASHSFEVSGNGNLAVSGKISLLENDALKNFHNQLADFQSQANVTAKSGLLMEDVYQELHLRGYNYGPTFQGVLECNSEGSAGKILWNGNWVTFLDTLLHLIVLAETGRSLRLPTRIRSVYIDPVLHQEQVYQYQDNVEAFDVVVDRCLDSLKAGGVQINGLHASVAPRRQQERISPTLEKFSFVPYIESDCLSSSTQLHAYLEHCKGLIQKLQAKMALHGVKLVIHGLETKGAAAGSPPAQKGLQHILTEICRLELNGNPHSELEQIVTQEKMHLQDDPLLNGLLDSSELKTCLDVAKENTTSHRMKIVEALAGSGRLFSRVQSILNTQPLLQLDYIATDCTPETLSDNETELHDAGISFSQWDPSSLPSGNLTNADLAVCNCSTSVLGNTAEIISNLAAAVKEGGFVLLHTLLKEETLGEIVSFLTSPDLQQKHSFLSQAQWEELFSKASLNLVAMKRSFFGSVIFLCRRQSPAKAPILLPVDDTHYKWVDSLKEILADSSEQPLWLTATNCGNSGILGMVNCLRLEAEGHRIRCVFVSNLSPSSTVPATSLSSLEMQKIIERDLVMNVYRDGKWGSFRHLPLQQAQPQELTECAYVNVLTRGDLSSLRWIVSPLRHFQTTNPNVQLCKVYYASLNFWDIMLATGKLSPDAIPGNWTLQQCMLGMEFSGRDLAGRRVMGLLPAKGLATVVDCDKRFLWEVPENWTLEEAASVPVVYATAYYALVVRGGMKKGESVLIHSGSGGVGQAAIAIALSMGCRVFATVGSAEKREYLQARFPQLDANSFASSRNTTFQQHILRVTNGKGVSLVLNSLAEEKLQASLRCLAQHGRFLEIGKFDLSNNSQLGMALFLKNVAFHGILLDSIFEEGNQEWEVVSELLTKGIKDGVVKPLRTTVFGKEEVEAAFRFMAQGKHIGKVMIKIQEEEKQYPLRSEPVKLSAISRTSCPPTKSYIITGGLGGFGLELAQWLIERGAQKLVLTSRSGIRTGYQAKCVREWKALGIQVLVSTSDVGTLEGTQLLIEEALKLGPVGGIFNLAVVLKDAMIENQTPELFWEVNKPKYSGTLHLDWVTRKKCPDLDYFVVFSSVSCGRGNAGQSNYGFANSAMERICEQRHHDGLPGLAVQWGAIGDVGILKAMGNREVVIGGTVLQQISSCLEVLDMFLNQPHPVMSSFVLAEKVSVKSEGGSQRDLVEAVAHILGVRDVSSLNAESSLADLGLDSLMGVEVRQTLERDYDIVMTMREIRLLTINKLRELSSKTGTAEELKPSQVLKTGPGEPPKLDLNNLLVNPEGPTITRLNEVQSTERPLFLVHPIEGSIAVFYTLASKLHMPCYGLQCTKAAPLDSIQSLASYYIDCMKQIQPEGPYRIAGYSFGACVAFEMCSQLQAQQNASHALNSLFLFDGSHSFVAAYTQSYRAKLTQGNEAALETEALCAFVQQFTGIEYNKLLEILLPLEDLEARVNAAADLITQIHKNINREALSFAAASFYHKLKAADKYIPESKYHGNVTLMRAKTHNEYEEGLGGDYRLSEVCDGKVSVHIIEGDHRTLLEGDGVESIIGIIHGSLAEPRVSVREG

This experiment has as its target Fatty acid synthase (Gallus gallus, UniProt P12276). The experiment is described as follows: FAS Inhibitory Assay. Conditions: pH 7; 37 °C. How it is done:
To each microtube (final volume: 100 μL), FAS was added (20-30 μg protein) in a buffer containing 100 mM potassium phosphate (pH 7.0), 2.5 mM dithiothreitol and 2.0 mM EDTA with or without test compounds. The mixtures were preincubated at 37°C for 60 min and the reaction was started by the addition of a substrate mixture containing 0.25 mM NADPH, 0.4 nmol of malonyl CoA and 0.02 μCi of [3H] acetyl CoA. Following incubation at 37°C for 10 min, the reaction was terminated with 60% HClO4. Fatty acids were extracted with 1 mL of hexane and incorporation of radioactivity into the fatty acids was assessed by scintillation counting [Na et al., Bioorg. Med. Chem. Lett., 16:4738-4742].
A word on the IC50: it is the concentration that inhibits the measured activity by half. A high value points to weaker potency in that assay. The compound `CCCCC/C=C/C/C=C/CCCCCCCc1cccc(O)c1C(=O)O` [Ginkgolic acid C17:2 (2)] showed an IC50 of 9.2 µM.

In turn, `C/C=C/C/C=C/CCC(=O)[C@H]1O[C@H]1C(N)=O` yielded an IC50 of 13 µM.

The compound `CCCCCC/C=C\CCCCCCCc1cccc(O)c1C(=O)O` [6-{8(Z)-pentadecenyl}salicylic acid] yielded an IC50 of 17.1 µM. This IC50 and that of the compound before are within 1.5-fold of each other.

On to `O=c1cc(-c2ccc(O)c(O)c2)oc2cc(O)cc(O)c12` [2-(3,4-dihydroxyphenyl)-5,7-dihydroxy-4H-chromen-4-one], for which the IC50 came to 62.5 µM.

Consider `CCCCCC/C=C\CCCCCCCCCc1cccc(O)c1C(=O)O` [6-[10'(Z)-heptade-cenyljsalicylic acid], for which the IC50 is 10.5 µM.
